Measurements reported in US20110098177A1, “METHODS AND COMPOSITIONS OF PLANT MICRONUTRIENTS” (NOVUS INTERNATIONAL INC., priority 2006, published 2011).

Tests used:
Assay type in all cases: in vivo
Tygress tomato plants [1] = assay: Plant injury observed after BIOX-A foliar application, greenhouse tomato (Example 6); conditions: BIOX-A at concentrations of 2.86 or higher
Description: The following experiments were performed in a green house during the fall of 2008 and spring of 2009 at GCREC, Balm, University of Florida. Crop set-up, procedures and variables were as follows. […] Irrigation and non-micronutrient fertilizer were provided daily through microsprinklers at recommended rates for tomato production in Florida. No pesticides were used. Treatments were as described in Tables 4, 5 and 6 below. […] Treatments were applied at 5 WAT (weeks after transplanting) using a water volume of 200 mL/plant. A non-ionic surfactant was added. […] There were no significant differences between the foliar nutrient concentration of the leaves of any of the treatment groups prior to treatment.

Tygress tomato plants [2] = assay: Foliar nutrient concentration 2 weeks after treatment, greenhouse tomato (Examples 4-6); conditions: for B concentration in tomato leaves / Ca concentration in tomato leaves / Cu concentration in tomato leaves / Fe concentration in tomato leaves / K concentration in tomato leaves / Mg concentration in tomato leaves / Mn concentration in tomato leaves / N concentration in tomato leaves / P concentration in tomato leaves: 2 weeks after treatment
Method in brief: (§1)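 Tygress tomato in 2-gallon pots of micronutrient-poor medium (negligible Fe, Zn, Mn, Cu) in greenhouse; foliar treatments at 5 WAT in 200 mL/plant water with non-ionic surfactant. Newest non-applied leaves analysed 2 weeks before and after treatment; marketable fruit harvested three times from 10 WAT, graded. RCBD, 6 replications, LSD 5%.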

Tygress tomato plants [3] = assay: Yields of tomato fruits, greenhouse (Examples 4-6); conditions: for Marketable yield: tomato fruits
Method in brief: as §1

CSCCC(O)C(=O)O (stereo not shown) [BIOX-A, 2-hydroxy-4(methylthio)butanoic acid]
Plant injury (in words) (Tygress tomato plants [1]): severely injured tomato plants | B concentration in tomato leaves (Tygress tomato plants [2]; BIOX-A 0.69 lb/acre): 27 ppm | Ca concentration in tomato leaves (Tygress tomato plants [2]; BIOX-A 0.69 lb/acre): 0.5% | Cu concentration in tomato leaves (Tygress tomato plants [2]; BIOX-A 0.69 lb/acre): 29 ppm | Fe concentration in tomato leaves (Tygress tomato plants [2]; BIOX-A 0.69 lb/acre): 85 ppm | K concentration in tomato leaves (Tygress tomato plants [2]; BIOX-A 0.69 lb/acre): 3.2% | Mg concentration in tomato leaves (Tygress tomato plants [2]; BIOX-A 0.69 lb/acre): 0.3% | Mn concentration in tomato leaves (Tygress tomato plants [2]; BIOX-A 0.69 lb/acre): 56 ppm | N concentration in tomato leaves (Tygress tomato plants [2]; BIOX-A 0.69 lb/acre): 3.4% | P concentration in tomato leaves (Tygress tomato plants [2]; BIOX-A 0.69 lb/acre): 0.6% | B concentration in tomato leaves (Tygress tomato plants [2]; BIOX-A 1.37 lb/acre): 28 ppm | Ca concentration in tomato leaves (Tygress tomato plants [2]; BIOX-A 1.37 lb/acre): 0.6% | Cu concentration in tomato leaves (Tygress tomato plants [2]; BIOX-A 1.37 lb/acre): 31 ppm | Fe concentration in tomato leaves (Tygress tomato plants [2]; BIOX-A 1.37 lb/acre): 88 ppm | K concentration in tomato leaves (Tygress tomato plants [2]; BIOX-A 1.37 lb/acre): 3.4% | Mg concentration in tomato leaves (Tygress tomato plants [2]; BIOX-A 1.37 lb/acre): 0.3% | Mn concentration in tomato leaves (Tygress tomato plants [2]; BIOX-A 1.37 lb/acre): 55 ppm | N concentration in tomato leaves (Tygress tomato plants [2]; BIOX-A 1.37 lb/acre): 3.7% | P concentration in tomato leaves (Tygress tomato plants [2]; BIOX-A 1.37 lb/acre): 0.4% | B concentration in tomato leaves (Tygress tomato plants [2]; BIOX-A 2.86 lb/acre): 28 ppm | Ca concentration in tomato leaves (Tygress tomato plants [2]; BIOX-A 2.86 lb/acre): 0.6% | Cu concentration in tomato leaves (Tygress tomato plants [2]; BIOX-A 2.86 lb/acre): 50 ppm | Fe concentration in tomato leaves (Tygress tomato plants [2]; BIOX-A 2.86 lb/acre): 87 ppm | K concentration in tomato leaves (Tygress tomato plants [2]; BIOX-A 2.86 lb/acre): 3.3% | Mg concentration in tomato leaves (Tygress tomato plants [2]; BIOX-A 2.86 lb/acre): 0.1% | Mn concentration in tomato leaves (Tygress tomato plants [2]; BIOX-A 2.86 lb/acre): 54 ppm | N concentration in tomato leaves (Tygress tomato plants [2]; BIOX-A 2.86 lb/acre): 3.1% | P concentration in tomato leaves (Tygress tomato plants [2]; BIOX-A 2.86 lb/acre): 0.4% | B concentration in tomato leaves (Tygress tomato plants [2]; BIOX-A 5.52 lb/acre): 24 ppm | Ca concentration in tomato leaves (Tygress tomato plants [2]; BIOX-A 5.52 lb/acre): 0.6% | Cu concentration in tomato leaves (Tygress tomato plants [2]; BIOX-A 5.52 lb/acre): 28 ppm | Fe concentration in tomato leaves (Tygress tomato plants [2]; BIOX-A 5.52 lb/acre): 90 ppm | K concentration in tomato leaves (Tygress tomato plants [2]; BIOX-A 5.52 lb/acre): 2.1% | Mg concentration in tomato leaves (Tygress tomato plants [2]; BIOX-A 5.52 lb/acre): 0.1% | Mn concentration in tomato leaves (Tygress tomato plants [2]; BIOX-A 5.52 lb/acre): 53 ppm | N concentration in tomato leaves (Tygress tomato plants [2]; BIOX-A 5.52 lb/acre): 2.7% | P concentration in tomato leaves (Tygress tomato plants [2]; BIOX-A 5.52 lb/acre): 0.5% | B concentration in tomato leaves (Tygress tomato plants [2]; BIOX-A 8.28 lb/acre): 25 ppm | Ca concentration in tomato leaves (Tygress tomato plants [2]; BIOX-A 8.28 lb/acre): 0.5% | Cu concentration in tomato leaves (Tygress tomato plants [2]; BIOX-A 8.28 lb/acre): 25 ppm | Fe concentration in tomato leaves (Tygress tomato plants [2]; BIOX-A 8.28 lb/acre): 9 ppm | K concentration in tomato leaves (Tygress tomato plants [2]; BIOX-A 8.28 lb/acre): 0.9% | Mg concentration in tomato leaves (Tygress tomato plants [2]; BIOX-A 8.28 lb/acre): 0.1% | Mn concentration in tomato leaves (Tygress tomato plants [2]; BIOX-A 8.28 lb/acre): 57 ppm | N concentration in tomato leaves (Tygress tomato plants [2]; BIOX-A 8.28 lb/acre): 1.7% | P concentration in tomato leaves (Tygress tomato plants [2]; BIOX-A 8.28 lb/acre): 0.6% | Effect on foliar concentration of N, P, K, Mg, Ca, B, Mn, Fe and Zn relative to the control (Tygress tomato plants [2]; BIOX-A, all applied concentrations, P>0.05): None of the applied concentrations of BIOX-A had a significant effect | Marketable and unmarketable yields (in words) (Tygress tomato plants [3]; 1.37 lb/acre or less of BIOX-A): statistically similar | Marketable yield (Tygress tomato plants [3]; BIOX-A 0.69 lb/acre): 2.3 lb/plant | Marketable yield (Tygress tomato plants [3]; BIOX-A 1.37 lb/acre): 2.4 lb/plant | Marketable yield (Tygress tomato plants [3]; BIOX-A 2.86 lb/acre): 1.1 lb/plant | Marketable yield (Tygress tomato plants [3]; BIOX-A 5.52 lb/acre): 0 lb/plant | Marketable yield (Tygress tomato plants [3]; BIOX-A 8.28 lb/acre): 0 lb/plant | Non-marketable tomato yields compared with control (in words) (Tygress tomato plants [3]; BIOX-A at concentrations of 2.86 or higher): significantly higher non-marketable tomato yields than control | Marketable tomato yields (in words) (Tygress tomato plants [3]; BIOX-A at concentrations of 2.86 or higher, P<0.05): significantly decreased
